# Active and inactive are the calls of the source. The rule behind the calls is not given here.
# Key:
# [1] = tested on: HASMC; assay: Inhibition of PDGF-induced CDK2 expression in human HASMC at 2 to 4 uM after 24 hrs by Western blot analysis; format: functional, cell-based
# [2] = tested on: HASMC; assay: Inhibition of PDGF-induced cyclin D1 expression in human HASMC at 2 to 4 uM after 24 hrs by Western blot analysis; format: functional, cell-based
# [3] = molecular target: Platelet-derived growth factor receptor beta (Homo sapiens) (UniProt P09619); assay: Inhibition of PDGF-induced PDGFRbeta phosphorylation in human HASMC after 5 to 15 mins by Western blot analysis
# Chain of Platelet-derived growth factor receptor beta (Homo sapiens) (P09619 whole entry): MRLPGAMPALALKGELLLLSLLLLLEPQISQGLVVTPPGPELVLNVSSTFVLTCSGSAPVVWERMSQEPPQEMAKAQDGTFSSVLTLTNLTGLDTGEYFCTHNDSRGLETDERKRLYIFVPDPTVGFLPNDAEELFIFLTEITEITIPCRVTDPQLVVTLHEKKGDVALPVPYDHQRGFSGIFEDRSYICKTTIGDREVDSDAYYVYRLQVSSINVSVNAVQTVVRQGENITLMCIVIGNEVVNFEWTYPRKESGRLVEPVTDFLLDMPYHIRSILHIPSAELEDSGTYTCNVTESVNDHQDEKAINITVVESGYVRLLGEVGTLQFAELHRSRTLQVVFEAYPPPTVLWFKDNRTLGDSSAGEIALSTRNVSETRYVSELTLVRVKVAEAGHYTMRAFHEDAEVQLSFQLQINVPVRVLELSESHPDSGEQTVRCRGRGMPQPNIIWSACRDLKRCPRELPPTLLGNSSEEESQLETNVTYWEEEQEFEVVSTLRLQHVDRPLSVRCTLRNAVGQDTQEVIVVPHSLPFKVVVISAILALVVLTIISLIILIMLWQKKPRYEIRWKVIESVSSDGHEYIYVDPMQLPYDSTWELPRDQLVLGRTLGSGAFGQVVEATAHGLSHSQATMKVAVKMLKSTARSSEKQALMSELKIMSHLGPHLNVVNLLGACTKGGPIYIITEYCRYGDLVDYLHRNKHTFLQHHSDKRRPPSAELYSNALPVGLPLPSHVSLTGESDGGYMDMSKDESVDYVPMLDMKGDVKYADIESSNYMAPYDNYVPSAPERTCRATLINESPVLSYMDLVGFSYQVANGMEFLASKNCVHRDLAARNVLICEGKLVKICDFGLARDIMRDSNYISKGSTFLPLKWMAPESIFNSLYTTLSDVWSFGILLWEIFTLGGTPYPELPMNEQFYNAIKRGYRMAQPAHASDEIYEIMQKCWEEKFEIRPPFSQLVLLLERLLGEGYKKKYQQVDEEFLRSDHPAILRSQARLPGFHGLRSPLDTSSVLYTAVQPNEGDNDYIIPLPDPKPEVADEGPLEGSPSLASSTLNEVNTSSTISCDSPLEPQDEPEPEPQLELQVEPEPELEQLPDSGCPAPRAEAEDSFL
# [4] = tested on: HASMC; assay: Cell cycle arrest in PGDF-stimulated human HASMC assessed as proportion of cells in S phase at 1 uM treated for 6 hrs prior to incubation with PDGF measured after 24 hrs by propidium iodide staining based flow cytometry (reference value: 20.8%); format: functional
# [5] = tested on: HASMC; assay: Increase in p21 expression in PDGF-stimulated human HASMC at 2 to 4 uM after 24 hrs by Western blot analysis; format: functional, cell-based
# [6] = tested on: HASMC; assay: Cell cycle arrest in PGDF-stimulated human HASMC assessed as proportion of cells in S phase at 4 uM treated for 6 hrs prior to incubation with PDGF measured after 24 hrs by propidium iodide staining based flow cytometry (reference value: 20.8%); format: functional
# [7] = molecular target: Platelet-derived growth factor receptor beta (Homo sapiens) (UniProt P09619); assay: Inhibition of PDGFRbeta in human HASMC assessed as decrease in PDGF-induced ERK1/2 phosphorylation at 1 to 4 uM after 5 to 15 mins by Western blot analysis
# [8] = tested on: HASMC; assay: Inhibition of PDGF-induced cyclin E expression in human HASMC at 2 to 4 uM after 24 hrs by Western blot analysis; format: functional, cell-based
# [9] = tested on: HASMC; assay: Inhibition of PDGF-induced human HASMC proliferation after 24 hrs by trypan blue dye exclusion assay; format: functional, cell-based
# [10] = tested on: HASMC; assay: Cytotoxicity against human HASMC assessed as effect on cell migration at 4 uM after 24 hrs by modified boyden chamber analysis; format: cell-based
# [11] = tested on: HASMC; assay: Cytotoxicity against human HASMC assessed as effect on cell vaibility at 0.5 to 4 uM after 24 hrs by MTT assay; format: cell-based
# [12] = molecular target: Platelet-derived growth factor receptor beta (Homo sapiens) (UniProt P09619); assay: Inhibition of PDGFRbeta in human HASMC assessed as decrease in PDGF-induced Akt phosphorylation at 1 to 4 uM after 5 to 15 mins by Western blot analysis
# [13] = tested on: HASMC; assay: Cell cycle arrest in PGDF-stimulated human HASMC assessed as proportion of cells in S phase at 2 uM treated for 6 hrs prior to incubation with PDGF measured after 24 hrs by propidium iodide staining based flow cytometry (reference value: 20.8%); format: functional
# [14] = tested on: HASMC; assay: Inhibition of PDGF-induced CDK4 expression in human HASMC at 2 to 4 uM after 24 hrs by Western blot analysis; format: functional, cell-based
# [15] = tested on: HASMC; assay: Inhibition of PDGF-induced DNA synthesis in human HASMC assessed as decrease in [3H]thymidine incorporation after 20 hrs by microplate scintillation analysis; format: functional, cell-based
# [16] = molecular target: Platelet-derived growth factor receptor beta (Homo sapiens) (UniProt P09619); assay: Inhibition of PDGFRbeta in human HASMC assessed as decrease in PDGF-induced PLC-gamma1 phosphorylation at 1 to 4 uM after 5 to 15 mins by Western blot analysis
# [17] = tested on: HASMC; assay: Inhibition of PDGF-induced actin filament dissociation in human HASMC at 2 to 4 uM after 24 hrs by Rhodamine-Phalloidin staining based fluorescence microscopy; format: functional, cell-based
# [18] = tested on: HASMC; assay: Inhibition of PDGF-induced human HASMC migration at 4 uM after 24 hrs by modified boyden chamber analysis; format: functional, cell-based
# [19] = tested on: HASMC; assay: Increase in p27 expression in PDGF-stimulated human HASMC at 2 to 4 uM after 24 hrs by Western blot analysis; format: functional, cell-based
compound,measurement,setting,value
CCCCCCCC/C=C\CCCCCCC[C@H](O)[C@@H](O)[C@H](O)C#CC#CCO [PETROSIOL A],inhibition,[1],Active
same,inhibition,[2],Active
same,inhibition,[3],Dose-dependent effect
same,Activity,[4],17.7%
same,Activity,[5],Active
same,Activity,[6],7.5%
same,inhibition,[7],Active
same,inhibition,[8],Active
same,IC50,[9],1000 nM
same,inhibition,[9],Dose-dependent effect
same,Activity,[10],Non-toxic
same,Activity,[11],Non-toxic
same,inhibition,[12],Active
same,Activity,[13],10.1%
same,inhibition,[14],Active
same,IC50,[15],730 nM
same,inhibition,[15],Dose-dependent effect
same,inhibition,[16],Active
same,inhibition,[17],Active
same,inhibition,[18],Active
same,Activity,[19],Active
CC(C)CCCCCCC#CCCCCCCCCC[C@@H](O)C#CC#CCO [STRONGYLODIOL D],IC50,[15],2200 nM
same,inhibition,[15],Dose-dependent effect
CC(C)CCCCCC/C=C\CCCCCCC[C@H](O)[C@@H](O)[C@H](O)C#CC#CCO [PETROSIOL B],IC50,[15],710 nM
same,inhibition,[15],Dose-dependent effect
CC(C)CCCCCC/C=C\CCCCCCCCC[C@@H](O)C#CC#CCO [STRONGYLODIOL C],IC50,[15],1100 nM
same,inhibition,[15],Dose-dependent effect
CCCCCCCCC/C=C\CCCCCCC[C@H](O)[C@@H](O)[C@H](O)C#CC#CCO [PETROSIOL D],IC50,[15],690 nM
same,inhibition,[15],Dose-dependent effect
C#C/C=C\CCCCCCCCCC/C=C\CCCCCCC[C@H](O)[C@@H](O)[C@H](O)C#CC#CCO [PETROSIOL C],IC50,[15],720 nM
same,inhibition,[15],Dose-dependent effect

# From ChEMBL document CHEMBL2346516, “Sponge-derived acetylenic alcohols, petrosiols, inhibit proliferation and migration of platelet-derived growth factor (PDGF)-induced vascular smooth muscle cells” (Bioorg Med Chem, 2013)
